In paper PMC6014988, “Precision therapeutic targeting of human cancer cell motility” (Nature Communications, 2018):
pIC50: −log10 of the molar value. “Also recorded” adds a separate entry of the source.

Assays:
HSP90β = molecular target: T1, HSP90β (Homo sapiens, UniProt P08238+Q16543); assay: In vitro kinase assay, SGK3 phosphorylation of HSP90β; format: biochemical
T1 construct: made in house; host or cells: E. coli (HSP90β, CDC37); SGK3 purchased from Thermo Scientific #PV3859

[1] = molecular target: T2, General transcription factor II-I (Homo sapiens, UniProt P78347); assay: ProtoArray binding, General transcription factor II-I; conditions: 10 fold excess free KBU2046
T2 construct: purchased Invitrogen
Procedure: (§1) The ProtoArray® assay, using the Human Protein Microarray platform, was performed by Invitrogen. […]
(§2) (d) Protein array hybridization. KBU2046-biotin was hybridized to ProtoArray® Human Protein Microarray’s at 0.5 and 10 µM with and without 10 fold excess free KBU2046. We first sought proteins that met the following criteria, and did so at both 0.5 and 10 µM concentrations of KBU2046-biotin (in the absence of free KBU2046): Z-Score greater than 2.5, Z-Factor greater than 0.5, CI P-value less than 0.05, negative control value <2,000 (relative fluorescence units; RFUs), and a signal/negative control signal of >10 and >5 for 10 µM and 0.5 µM conditions, respectively. This yielded 3 proteins, shown in table, for an initial hit rate of 0.03%. We then required free KBU2046 to inhibit binding by >75%. […]
There were two additional notable findings from protein array studies. First, the positive control used in protein arrays was staurosporine. Staurosporine is similar to genistein in that both are small compound natural products that are broad spectrum kinase inhibitors. In contrast to the lack of binding by KBU2046-biotin, staurosporine bound to 214 proteins at levels that were >/= 10 fold above that of background. The vast majority of these proteins were kinases. Second, both HSP90β and CDC37 were present on the protein arrays, and were not bound by KBU2046-

[2] = molecular target: T3, Isovaleryl-CoA dehydrogenase (Homo sapiens, UniProt P26440); assay: ProtoArray binding, Isovaleryl-CoA dehydrogenase; conditions: 10 fold excess free KBU2046
T3 construct: purchased Invitrogen
Procedure: as §1
as §2, with “followed by detection with FITC-streptavidin, and visualization by fluorescent microscopy (with equal exposure times). (d)” for “(d)”, “>75%. Of the two remaining candidates, we eliminated isovaleryl-CoA dehydrogenase (ICD). Its binding signal doubled on” for “>75%.”
suspected non-specific binding by the biotin-linker moiety. We deemed cysteine and glycine-rich protein 1 (CSRP1) our top priority protein, though its binding characteristics at 10 µM + free KBU2046 were similar to ICD, albeit not as extreme. We thus evaluated whether KBU2046- […]
There were two additional notable findings from protein array studies. […]

estrogen receptor (ER) = assay: Induction of estrogen-responsive genes in MCF-7 cells; format: cell-based, human
Procedure: RNA was isolated and qRT-PCR was performed as described by us[43], analyzed by the 2^−ΔΔCt method, using primer/probes sets (ABI), HSP90α (Hs00743767_sH), HSP90β (Hs00427665_g1), trefoil factor 1 (TFF1; Hs00907239_m1), cathepsin D (CTSD; Hs00157205_m1), progesterone receptor (PGR; Hs01556702_m1), and GAPDH (Hs99999905_m1). Assays were repeated, each in replicates of N = 2. […]
panel. KBU2046 was submitted to the Developmental Therapeutics Program (DTP) of the US National Cancer Institute (NCI), underwent initial screening across the NCI 60 cell line panel per DTP protocol 1, and the resultant COMPARE diagram is depicted above. Based upon its lack of […]
Supplementary Figure 3. […] Estrogen […]
receptor positive MCF-7 cells were cultured under hormone free conditions transfected pERE-Luc or empty control vector, along with constitutive active β-gal, grown under estrogen-free conditions, and pre-treated for 24 hours with nanomolar concentrations of estradiol, or with micromolar concentrations of genistein or KBU2046, as indicated. Luciferase activity was measured, normalized to that of β-gal, and values expressed as the percent of untreated vector control cells. Values are the mean±SD of a single experiment, with similar results seen in a separate repeat experiment, both in replicates of N=2.
(also on this page, place not known: luciferase/B-gal activity, % untreated vector control) […]

1532NPTX = assay: Three-day MTT cell growth inhibition assay, 1532NPTX; format: cell-based, human; conditions: Homo sapiens, 72 h, 3 days
[3] = as above; format: cell-based, human; conditions: human, 1532NPTX cells
1542CPTX = assay: Three-day MTT cell growth inhibition assay, 1542CPTX; format: cell-based, human; conditions: Homo sapiens, 72 h, 3 days
[4] = as above; format: cell-based, human; conditions: human, 1542CPTX cells

T2 sequence (P78347 whole entry): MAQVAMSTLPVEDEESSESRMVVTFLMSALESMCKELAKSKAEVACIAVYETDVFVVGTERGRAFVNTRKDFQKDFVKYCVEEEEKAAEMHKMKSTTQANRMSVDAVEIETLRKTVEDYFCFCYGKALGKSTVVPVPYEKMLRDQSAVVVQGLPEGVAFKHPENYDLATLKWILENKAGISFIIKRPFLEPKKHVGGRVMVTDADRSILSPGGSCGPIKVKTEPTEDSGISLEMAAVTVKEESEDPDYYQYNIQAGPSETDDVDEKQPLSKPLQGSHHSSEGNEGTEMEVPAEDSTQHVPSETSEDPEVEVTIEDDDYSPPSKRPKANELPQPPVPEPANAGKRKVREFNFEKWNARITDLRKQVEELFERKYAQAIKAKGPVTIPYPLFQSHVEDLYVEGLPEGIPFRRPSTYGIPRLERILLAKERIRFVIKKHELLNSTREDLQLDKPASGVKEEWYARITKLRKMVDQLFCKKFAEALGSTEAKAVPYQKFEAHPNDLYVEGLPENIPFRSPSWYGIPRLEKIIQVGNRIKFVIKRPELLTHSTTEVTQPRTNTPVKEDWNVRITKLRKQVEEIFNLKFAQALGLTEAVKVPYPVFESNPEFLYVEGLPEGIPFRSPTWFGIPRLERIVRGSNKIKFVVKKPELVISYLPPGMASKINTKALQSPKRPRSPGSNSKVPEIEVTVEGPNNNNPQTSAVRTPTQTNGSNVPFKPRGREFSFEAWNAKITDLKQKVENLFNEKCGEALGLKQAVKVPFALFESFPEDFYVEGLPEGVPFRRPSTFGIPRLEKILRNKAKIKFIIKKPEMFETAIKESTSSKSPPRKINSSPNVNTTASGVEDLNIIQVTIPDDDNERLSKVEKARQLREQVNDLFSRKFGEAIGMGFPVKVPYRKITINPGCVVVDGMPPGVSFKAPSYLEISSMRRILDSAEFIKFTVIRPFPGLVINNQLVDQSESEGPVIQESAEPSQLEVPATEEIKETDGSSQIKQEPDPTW
T3 sequence (P26440 33-426): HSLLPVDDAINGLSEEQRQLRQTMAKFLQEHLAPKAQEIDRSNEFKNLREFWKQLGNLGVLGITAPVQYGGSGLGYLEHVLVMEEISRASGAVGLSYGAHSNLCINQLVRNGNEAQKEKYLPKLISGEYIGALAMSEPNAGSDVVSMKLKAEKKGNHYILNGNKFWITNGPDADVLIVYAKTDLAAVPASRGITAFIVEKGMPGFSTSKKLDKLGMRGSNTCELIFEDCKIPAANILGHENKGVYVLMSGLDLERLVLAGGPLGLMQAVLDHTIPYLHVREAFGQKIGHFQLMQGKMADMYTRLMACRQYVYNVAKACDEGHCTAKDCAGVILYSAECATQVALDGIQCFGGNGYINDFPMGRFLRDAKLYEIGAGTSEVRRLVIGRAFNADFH
T1 sequence (P08238 whole entry): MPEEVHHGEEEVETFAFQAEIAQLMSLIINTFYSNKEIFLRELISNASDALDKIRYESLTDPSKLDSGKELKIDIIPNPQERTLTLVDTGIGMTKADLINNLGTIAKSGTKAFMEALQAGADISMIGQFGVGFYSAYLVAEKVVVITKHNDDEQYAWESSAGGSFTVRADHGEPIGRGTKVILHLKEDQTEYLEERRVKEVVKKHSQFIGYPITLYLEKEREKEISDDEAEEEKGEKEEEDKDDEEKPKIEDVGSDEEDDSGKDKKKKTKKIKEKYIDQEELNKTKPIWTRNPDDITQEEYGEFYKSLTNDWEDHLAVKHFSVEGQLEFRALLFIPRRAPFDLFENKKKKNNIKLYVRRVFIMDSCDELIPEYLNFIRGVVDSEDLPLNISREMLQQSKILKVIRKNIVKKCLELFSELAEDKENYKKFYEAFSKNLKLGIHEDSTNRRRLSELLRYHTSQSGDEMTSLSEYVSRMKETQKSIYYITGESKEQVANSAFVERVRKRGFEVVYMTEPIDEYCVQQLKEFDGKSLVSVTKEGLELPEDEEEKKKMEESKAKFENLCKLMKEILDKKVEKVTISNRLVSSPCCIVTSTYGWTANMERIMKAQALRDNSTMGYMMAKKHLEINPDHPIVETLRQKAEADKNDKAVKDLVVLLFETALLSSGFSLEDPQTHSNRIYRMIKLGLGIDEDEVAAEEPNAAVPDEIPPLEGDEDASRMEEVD
T1 sequence (Q16543 whole entry): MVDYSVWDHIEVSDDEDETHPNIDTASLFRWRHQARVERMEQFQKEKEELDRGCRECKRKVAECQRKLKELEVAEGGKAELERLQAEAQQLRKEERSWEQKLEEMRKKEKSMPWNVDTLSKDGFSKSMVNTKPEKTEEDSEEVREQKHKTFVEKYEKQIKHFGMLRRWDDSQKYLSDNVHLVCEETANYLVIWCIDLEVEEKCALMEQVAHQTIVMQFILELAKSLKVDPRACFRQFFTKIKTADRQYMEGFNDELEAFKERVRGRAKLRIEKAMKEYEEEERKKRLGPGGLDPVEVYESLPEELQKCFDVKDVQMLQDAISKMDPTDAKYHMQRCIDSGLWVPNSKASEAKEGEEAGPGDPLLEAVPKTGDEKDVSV

With `O=C1c2ccccc2OCC1c1ccc(F)cc1` (racemic) [KBU2046, (±)-3(4-fluorophenyl)chroman-4-one] the “SGK3-mediated phosphorylation of HSP90β” value (HSP90β; HSP90β, CDC37, SGK3) was “phosphorylation was further increased”, the “SGK3-mediated phosphorylation of HSP90β” value (HSP90β; with MAP3K6 added) was “decreases in the presence of KBU2046” and the “% inhibition by competitor” value ([1]; 0.5 uM KBU2046-biotin) was 64%. For the same molecule, the “% inhibition by competitor” value ([1]; 10 uM KBU2046-biotin) was 43%, the “% inhibition by competitor” value ([2]; 0.5 uM KBU2046-biotin) was 80% and the “% inhibition by competitor” value ([2]; 10 uM KBU2046-biotin) was 12%. For the same molecule, the “activation of estrogen-responsive genes” value (estrogen receptor (ER)) was “did not activate estrogen-responsive genes; also recorded: does not activate the estrogen receptor”, the IC20 (1532NPTX) was > 50 µM and the pIC50 (1532NPTX) was < 4.30. For the same molecule, the viability at 3 days, 50 µM [3] was 95.3%, the IC20 (1542CPTX) was > 50 µM and the pIC50 (1542CPTX) was < 4.30. For the same molecule, the viability at 3 days, 50 µM [4] was 104%.
